Data from ChEMBL document CHEMBL1201862, “PubChem BioAssay data set” (2004).
Activity calls are given as the source filed them.

Assays:
[1] = target: Type-1 angiotensin II receptor (Homo sapiens, UniProt P30556); test: AT1 receptor antagonists, dose response, selectivity assay for APJ receptor antagonist project, cell-based, uHTS hits (AID 463214); format: functional;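 note: antagonist potency against angiotensin II stimulated AT1 response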
Beta-galactosidase = Beta-galactosidase (Escherichia coli, UniProt Q8VNN2); test: PubChem AID 485352; format: functional
[2] = target: T1, E3 ubiquitin-protein ligase XIAP (Homo sapiens, UniProt P98170); test: XIAP antagonists, biochemical, IAP family, fluorescence polarization (AID 1018); format: functional
[3] = target: T1, E3 ubiquitin-protein ligase XIAP; test: Counter Screen using XIAP-Bir3 for Chemical Antagonists of Bir1/2 domains of IAP-family anti-apoptotic proteins. [Related pubchem assays (depositor defined):AID1018, AID1449, AID1514, AID1638, AID1749, AID1750, AID488957, AID488963]
[4] = target: FAD-linked sulfhydryl oxidase ALR (Homo sapiens, UniProt P55789); test: inhibitors of human ALR sulfhydryl oxidase, dose response, biochemical, H2O2 detection, luminescence, cherry-pick (AID 493248)
Leucine aminopeptidase = target: T2, Leucine aminopeptidase (Plasmodium falciparum 3D7, UniProt Q8IL11); test: P. falciparum M17LAP inhibitors, primary screen, biochemical, fluorogenic H-Leu-NHMec substrate, 1536-well (AID 1619); format: functional
T2 sequence (Q8IL11 whole entry): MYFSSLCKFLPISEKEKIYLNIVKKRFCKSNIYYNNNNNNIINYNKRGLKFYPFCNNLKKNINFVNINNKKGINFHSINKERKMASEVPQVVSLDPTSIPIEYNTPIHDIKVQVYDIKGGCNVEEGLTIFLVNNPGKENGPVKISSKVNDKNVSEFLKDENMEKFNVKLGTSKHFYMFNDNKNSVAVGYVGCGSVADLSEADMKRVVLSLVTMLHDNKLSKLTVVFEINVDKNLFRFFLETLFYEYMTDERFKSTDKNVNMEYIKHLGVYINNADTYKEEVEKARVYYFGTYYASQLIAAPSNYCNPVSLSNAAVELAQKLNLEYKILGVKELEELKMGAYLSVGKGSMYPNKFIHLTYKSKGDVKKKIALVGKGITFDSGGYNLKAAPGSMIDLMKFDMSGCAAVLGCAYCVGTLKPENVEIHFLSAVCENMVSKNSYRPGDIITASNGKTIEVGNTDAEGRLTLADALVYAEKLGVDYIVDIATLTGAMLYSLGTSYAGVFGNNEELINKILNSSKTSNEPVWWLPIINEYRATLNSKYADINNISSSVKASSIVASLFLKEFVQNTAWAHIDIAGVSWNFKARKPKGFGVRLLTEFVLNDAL

Keap1/Nrf2 = Keap1/Nrf2 (Homo sapiens, UniProt Q14145); test: Keap1-Nrf2 protein-protein interaction inhibitors, dose response, biochemical, fluorescence polarization, cherry-picked samples (AID 588683)
[5] = Vero E6 cell cytotoxicity, dose response, cytotoxicity control for non-replicating M. tuberculosis project, secondary assay (AID 492998); format: functional, VeroE6; settings: Vero C1008
[6] = C. albicans growth with fluconazole, confirmation, fluorescence, retest (AID 2467); format: functional, cell-based
[7] = THP-1 cell cytotoxicity, dose response, cytotoxicity control for non-replicating M. tuberculosis project (AID 489025); format: functional
[8] = inhibitors of firefly luciferase expression or activity, dose response, H4 neuroglioma cells, luminescence (AID 1990); format: functional, cell-based
[9] = HepG2 cell cytotoxicity, dose response, cytotoxicity control for non-replicating M. tuberculosis project (AID 489018); format: functional; settings: Mycobacterium tuberculosis
[10] = inhibitors of SNCA 5'UTR-driven reporter translation, confirmation, H4 neuroglioma cells, luminescence (AID 1988); format: functional, cell-based
INS1 = test: beta cell apoptosis inhibitors, cytokine rescue, dose response, luminescence, retest (AID 449756); format: functional, cell-based; settings: Rattus norvegicus;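 note: cell death triggered by IL-1 beta plus TNF-alpha plus IFN-gamma mixture; protective hits raise ATP signal compared with cytokine alone wells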
[11] = cytotoxicity in HEK-293T cells, dose response, cytotoxicity control for TCR NF-kB inhibitor project, luminescence, T-cell screen hits (AID 489026); format: functional, cell-based;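 note: cells exposed to compound about 14 hours before the viability readout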
[12] = NIH-3T3 fibroblast cytotoxicity, dose response, cytotoxicity control, cell-based, fluorescence, Alamar Blue, secondary assay (AID 2327); format: functional;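 note: NIH-3T3 mouse fibroblasts cultured with fluconazole at 8 µg/mL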
[13] = Luminescence Cell-Based Dose Response HTS to Identify Inhibitors of 5'UTR Stem-Loop Driven Prion Protein mRNA Translation in H4 Neuroglioblastoma Cells. [Related pubchem assays: 1827 (Project Summary), 1813 (Primary HTS)]; format: functional

T1 sequence (P98170 whole entry): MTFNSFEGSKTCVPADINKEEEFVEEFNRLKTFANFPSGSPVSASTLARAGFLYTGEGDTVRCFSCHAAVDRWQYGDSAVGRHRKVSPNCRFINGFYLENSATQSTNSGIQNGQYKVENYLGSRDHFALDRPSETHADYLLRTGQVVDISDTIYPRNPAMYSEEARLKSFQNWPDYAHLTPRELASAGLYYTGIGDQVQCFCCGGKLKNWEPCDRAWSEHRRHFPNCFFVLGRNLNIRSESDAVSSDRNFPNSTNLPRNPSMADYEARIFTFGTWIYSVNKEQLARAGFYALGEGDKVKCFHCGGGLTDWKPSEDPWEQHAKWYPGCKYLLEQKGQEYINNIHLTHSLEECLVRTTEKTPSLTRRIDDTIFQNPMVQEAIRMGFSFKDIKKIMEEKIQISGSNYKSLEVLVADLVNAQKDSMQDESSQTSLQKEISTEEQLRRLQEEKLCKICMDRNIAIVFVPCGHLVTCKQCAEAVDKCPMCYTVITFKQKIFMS
Beta-galactosidase, sequence (Q8VNN2 whole entry): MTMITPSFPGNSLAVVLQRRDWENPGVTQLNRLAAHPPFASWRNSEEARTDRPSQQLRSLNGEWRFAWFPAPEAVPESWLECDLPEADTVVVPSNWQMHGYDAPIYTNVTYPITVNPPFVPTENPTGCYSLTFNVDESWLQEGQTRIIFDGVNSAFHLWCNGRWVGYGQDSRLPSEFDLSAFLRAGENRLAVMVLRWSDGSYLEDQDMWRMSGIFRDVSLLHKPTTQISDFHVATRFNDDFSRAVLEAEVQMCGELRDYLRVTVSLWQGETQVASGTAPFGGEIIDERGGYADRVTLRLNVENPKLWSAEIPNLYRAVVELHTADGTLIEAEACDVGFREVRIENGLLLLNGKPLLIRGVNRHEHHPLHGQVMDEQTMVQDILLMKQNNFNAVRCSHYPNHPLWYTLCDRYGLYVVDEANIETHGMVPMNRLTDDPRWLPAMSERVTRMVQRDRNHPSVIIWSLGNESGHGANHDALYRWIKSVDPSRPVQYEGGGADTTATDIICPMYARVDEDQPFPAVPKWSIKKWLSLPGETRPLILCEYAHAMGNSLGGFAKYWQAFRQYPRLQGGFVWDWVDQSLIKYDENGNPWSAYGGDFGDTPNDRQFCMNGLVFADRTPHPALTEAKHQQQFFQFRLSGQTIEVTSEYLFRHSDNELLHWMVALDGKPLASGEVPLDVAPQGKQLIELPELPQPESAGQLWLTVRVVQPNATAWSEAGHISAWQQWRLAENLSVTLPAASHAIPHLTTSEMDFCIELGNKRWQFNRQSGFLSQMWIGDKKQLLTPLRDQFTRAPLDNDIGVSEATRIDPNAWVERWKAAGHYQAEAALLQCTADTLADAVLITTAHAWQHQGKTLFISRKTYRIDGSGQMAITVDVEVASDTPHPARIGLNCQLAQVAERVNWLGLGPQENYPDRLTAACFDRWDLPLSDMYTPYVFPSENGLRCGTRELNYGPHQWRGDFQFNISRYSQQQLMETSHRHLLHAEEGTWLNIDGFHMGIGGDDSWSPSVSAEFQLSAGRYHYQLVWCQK
Type-1 angiotensin II receptor, sequence (P30556 whole entry): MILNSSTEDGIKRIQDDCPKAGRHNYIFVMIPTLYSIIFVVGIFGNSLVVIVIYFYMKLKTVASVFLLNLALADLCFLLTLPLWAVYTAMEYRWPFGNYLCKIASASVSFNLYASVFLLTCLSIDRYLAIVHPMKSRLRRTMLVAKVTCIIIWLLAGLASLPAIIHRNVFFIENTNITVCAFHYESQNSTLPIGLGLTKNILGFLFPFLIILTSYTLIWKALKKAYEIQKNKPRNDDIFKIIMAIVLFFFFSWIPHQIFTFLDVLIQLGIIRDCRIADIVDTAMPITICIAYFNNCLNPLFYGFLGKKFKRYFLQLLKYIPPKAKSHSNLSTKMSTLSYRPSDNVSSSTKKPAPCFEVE
Keap1/Nrf2, sequence (Q16236 whole entry): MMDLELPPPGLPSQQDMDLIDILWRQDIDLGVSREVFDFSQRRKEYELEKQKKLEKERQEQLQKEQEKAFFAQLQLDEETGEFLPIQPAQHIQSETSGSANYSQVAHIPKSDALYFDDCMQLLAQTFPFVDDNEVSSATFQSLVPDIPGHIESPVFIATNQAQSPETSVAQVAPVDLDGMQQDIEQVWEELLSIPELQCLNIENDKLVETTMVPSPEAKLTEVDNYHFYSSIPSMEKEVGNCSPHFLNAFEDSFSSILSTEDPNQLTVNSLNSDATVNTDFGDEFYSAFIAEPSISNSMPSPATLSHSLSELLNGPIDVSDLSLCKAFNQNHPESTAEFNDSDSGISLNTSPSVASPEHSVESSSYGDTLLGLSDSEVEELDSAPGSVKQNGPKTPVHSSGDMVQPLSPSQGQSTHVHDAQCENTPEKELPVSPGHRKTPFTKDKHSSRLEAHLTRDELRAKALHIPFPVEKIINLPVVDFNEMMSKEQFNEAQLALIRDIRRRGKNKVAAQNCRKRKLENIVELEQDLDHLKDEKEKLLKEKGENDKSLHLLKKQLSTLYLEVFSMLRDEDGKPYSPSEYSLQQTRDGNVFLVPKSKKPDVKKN
Keap1/Nrf2, sequence (Q14145 whole entry): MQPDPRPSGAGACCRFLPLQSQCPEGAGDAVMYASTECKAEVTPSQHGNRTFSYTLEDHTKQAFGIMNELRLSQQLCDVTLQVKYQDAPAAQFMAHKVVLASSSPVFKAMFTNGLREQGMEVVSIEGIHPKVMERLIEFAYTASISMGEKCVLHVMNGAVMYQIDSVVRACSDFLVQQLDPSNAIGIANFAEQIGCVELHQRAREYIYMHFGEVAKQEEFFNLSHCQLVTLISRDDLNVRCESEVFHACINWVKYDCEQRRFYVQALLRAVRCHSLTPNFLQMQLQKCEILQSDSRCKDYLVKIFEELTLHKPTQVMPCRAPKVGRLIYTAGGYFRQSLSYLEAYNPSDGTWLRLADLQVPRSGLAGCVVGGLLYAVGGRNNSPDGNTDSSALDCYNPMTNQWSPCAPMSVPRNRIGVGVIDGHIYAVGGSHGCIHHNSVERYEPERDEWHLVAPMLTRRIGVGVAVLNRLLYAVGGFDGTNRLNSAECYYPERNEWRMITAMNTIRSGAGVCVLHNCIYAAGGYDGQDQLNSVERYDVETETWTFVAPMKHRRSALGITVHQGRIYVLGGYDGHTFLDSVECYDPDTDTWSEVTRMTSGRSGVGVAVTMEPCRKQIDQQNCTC
FAD-linked sulfhydryl oxidase ALR, sequence (P55789 whole entry): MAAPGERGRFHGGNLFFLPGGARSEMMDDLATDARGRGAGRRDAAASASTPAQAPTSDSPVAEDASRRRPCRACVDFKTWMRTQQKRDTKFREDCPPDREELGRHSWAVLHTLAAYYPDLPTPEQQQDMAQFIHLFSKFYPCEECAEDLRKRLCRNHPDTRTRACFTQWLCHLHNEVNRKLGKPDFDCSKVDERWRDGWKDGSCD

Cc1cccc(NC(=S)NNc2ncc(C(F)(F)F)cc2Cl)c1
IC50 [1]: 13.1 µM (active)
EC50 (Beta-galactosidase): > 40 µM (inactive)

O=[N+]([O-])c1ccccc1S(=O)(=O)N1CCCCC1
IC50 [2]: > 100 µM (not active)
IC50 [3]: > 100 µM (inactive)

CSc1cccc(NC(=O)CN2C(=O)c3ccccc3S2(=O)=O)c1
AC50 [4]: 2.37 µM (active)
IC50 (Leucine aminopeptidase): 5.87 µM (active)
IC50 [2]: > 100 µM (not active)
IC50 [3]: > 100 µM (inactive)

COc1cccc(/C=C/C(=O)OCC(=O)NC(=O)NC2CCCC2)c1
AC50 (Keap1/Nrf2): > 52 µM (inactive)

CCCCCCCCCCn1ccc(=N)cc1
CC50 [5]: 11.4 µM (active)
EC50 [6]: 0.055 µM (active)
CC50 [7]: 1.57 µM (active)
EC50 [8]: 10.3 µM (active)
CC50 [9]: 7.25 µM (active)
EC50 [10]: 8.93 µM (active)
AC50 (INS1): 0.471 µM (active)
IC50 [11]: > 80 µM (inactive)
EC50 [12]: 22.5 µM (active)
EC50 [13]: 8.51 µM (active)
